± gives the expanded uncertainty stated by the source.
Experiment: xn = mol fraction of the nth substance listed
Details: Liquid, Vibrating tube method, x1 = 0.4891

Cc1cccc(O)c1 [3-methylphenol] + Cc1ccccc1O
Details | mass density [kg/m3]
313.19 K, 103.35 kPa | 1023.8 ± 0.5
313.19 K, 206.8 kPa | 1024.3 ± 0.5
313.19 K, 308.94 kPa | 1024.9 ± 0.5
313.19 K, 406.72 kPa | 1025.5 ± 0.5
313.19 K, 509.16 kPa | 1026 ± 0.5
313.19 K, 609.17 kPa | 1026.6 ± 0.5
313.19 K, 710.69 kPa | 1027.1 ± 0.5
313.19 K, 813.34 kPa | 1027.7 ± 0.5
313.19 K, 912.33 kPa | 1028.3 ± 0.5
313.19 K, 1014.1 kPa | 1028.8 ± 0.5
313.19 K, 1115.4 kPa | 1029.3 ± 0.5
313.19 K, 1219.9 kPa | 1029.9 ± 0.5
313.19 K, 1317.7 kPa | 1030.4 ± 0.5
313.19 K, 1421.7 kPa | 1031 ± 0.5
313.19 K, 1522.3 kPa | 1031.5 ± 0.5
313.19 K, 1625.4 kPa | 1032.1 ± 0.5
313.19 K, 1723.2 kPa | 1032.6 ± 0.5
313.19 K, 1824.4 kPa | 1033.1 ± 0.5
313.19 K, 1926.4 kPa | 1033.6 ± 0.5
313.19 K, 2026.8 kPa | 1034.1 ± 0.5
313.19 K, 2129.3 kPa | 1034.7 ± 0.5
313.19 K, 2229.4 kPa | 1035.2 ± 0.5
313.19 K, 2333 kPa | 1035.7 ± 0.5
313.19 K, 2433.2 kPa | 1036.2 ± 0.5
313.19 K, 2532.9 kPa | 1036.7 ± 0.5
323.14 K, 101.12 kPa | 1015.4 ± 0.5
323.14 K, 206.5 kPa | 1016 ± 0.5
323.14 K, 310.87 kPa | 1016.6 ± 0.5
323.14 K, 408.14 kPa | 1017.1 ± 0.5
323.14 K, 510.78 kPa | 1017.8 ± 0.5
323.14 K, 609.67 kPa | 1018.3 ± 0.5
323.14 K, 712.01 kPa | 1018.9 ± 0.5
323.14 K, 812.42 kPa | 1019.5 ± 0.5
323.14 K, 916.79 kPa | 1020.1 ± 0.5
323.14 K, 1012.2 kPa | 1020.6 ± 0.5
323.14 K, 1115.9 kPa | 1021.2 ± 0.5
323.14 K, 1217.9 kPa | 1021.8 ± 0.5
323.14 K, 1321.1 kPa | 1022.4 ± 0.5
323.14 K, 1420.2 kPa | 1022.9 ± 0.5
323.14 K, 1520.1 kPa | 1023.5 ± 0.5
323.14 K, 1622.5 kPa | 1024 ± 0.5
323.14 K, 1723.3 kPa | 1024.6 ± 0.5
323.14 K, 1823.7 kPa | 1025.1 ± 0.5
323.14 K, 1926.1 kPa | 1025.6 ± 0.5
323.14 K, 2028 kPa | 1026.2 ± 0.5
323.14 K, 2128.7 kPa | 1026.7 ± 0.5
323.14 K, 2232.2 kPa | 1027.3 ± 0.5
323.14 K, 2331 kPa | 1027.8 ± 0.5
323.14 K, 2434.8 kPa | 1028.4 ± 0.5
323.14 K, 2533.2 kPa | 1028.9 ± 0.5
333.08 K, 104.06 kPa | 1007 ± 0.5
333.08 K, 209.13 kPa | 1007.6 ± 0.5
333.08 K, 305.29 kPa | 1008.2 ± 0.5
333.08 K, 408.54 kPa | 1008.8 ± 0.5
333.08 K, 507.94 kPa | 1009.4 ± 0.5
333.08 K, 610.79 kPa | 1010.1 ± 0.5
333.08 K, 708.67 kPa | 1010.6 ± 0.5
333.08 K, 812.42 kPa | 1011.3 ± 0.5
333.08 K, 913.04 kPa | 1011.9 ± 0.5
333.08 K, 1015.7 kPa | 1012.5 ± 0.5
333.08 K, 1115.2 kPa | 1013 ± 0.5
333.08 K, 1217.7 kPa | 1013.7 ± 0.5
333.08 K, 1318 kPa | 1014.2 ± 0.5
333.08 K, 1419 kPa | 1014.8 ± 0.5
333.08 K, 1520.9 kPa | 1015.4 ± 0.5
333.08 K, 1624.9 kPa | 1016 ± 0.5
333.08 K, 1724.2 kPa | 1016.6 ± 0.5
333.08 K, 1824.2 kPa | 1017.1 ± 0.5
333.08 K, 1925.9 kPa | 1017.7 ± 0.5
333.08 K, 2031 kPa | 1018.3 ± 0.5
333.08 K, 2132.9 kPa | 1018.9 ± 0.5
333.08 K, 2232.5 kPa | 1019.4 ± 0.5
333.08 K, 2336 kPa | 1020 ± 0.5
333.08 K, 2438 kPa | 1020.6 ± 0.5
333.08 K, 2536.6 kPa | 1021.1 ± 0.5
343.04 K, 103.66 kPa | 998.4 ± 0.5
343.04 K, 208.53 kPa | 999 ± 0.5
343.04 K, 305.8 kPa | 999.7 ± 0.5
343.04 K, 406.72 kPa | 1000.3 ± 0.5
343.04 K, 510.78 kPa | 1001 ± 0.5
343.04 K, 609.67 kPa | 1001.6 ± 0.5
343.04 K, 711.4 kPa | 1002.3 ± 0.5
343.04 K, 812.12 kPa | 1002.9 ± 0.5
343.04 K, 912.13 kPa | 1003.5 ± 0.5
343.04 K, 1014 kPa | 1004.1 ± 0.5
343.04 K, 1115.1 kPa | 1004.8 ± 0.5
343.04 K, 1220.8 kPa | 1005.4 ± 0.5
343.04 K, 1318.1 kPa | 1006 ± 0.5
343.04 K, 1420.7 kPa | 1006.6 ± 0.5
343.04 K, 1520.6 kPa | 1007.2 ± 0.5
343.04 K, 1621 kPa | 1007.9 ± 0.5
343.04 K, 1722.2 kPa | 1008.4 ± 0.5
343.04 K, 1824.6 kPa | 1009.1 ± 0.5
343.04 K, 1925.9 kPa | 1009.7 ± 0.5
343.04 K, 2028.3 kPa | 1010.2 ± 0.5
343.04 K, 2130 kPa | 1010.8 ± 0.5
343.04 K, 2233.9 kPa | 1011.4 ± 0.5
343.04 K, 2330.6 kPa | 1011.9 ± 0.5
343.04 K, 2432 kPa | 1012.5 ± 0.5
343.04 K, 2536.8 kPa | 1013.1 ± 0.5
352.98 K, 105.78 kPa | 990 ± 0.5
352.98 K, 204.88 kPa | 990.6 ± 0.5
352.98 K, 305.29 kPa | 991.3 ± 0.5
352.98 K, 408.64 kPa | 992 ± 0.5
352.98 K, 509.16 kPa | 992.6 ± 0.5
352.98 K, 610.18 kPa | 993.3 ± 0.5
352.98 K, 707.96 kPa | 993.9 ± 0.5
352.98 K, 810.8 kPa | 994.7 ± 0.5
352.98 K, 913.45 kPa | 995.3 ± 0.5
352.98 K, 1013.5 kPa | 996 ± 0.5
352.98 K, 1116.7 kPa | 996.6 ± 0.5
352.98 K, 1217.9 kPa | 997.2 ± 0.5
352.98 K, 1316.1 kPa | 997.9 ± 0.5
352.98 K, 1418 kPa | 998.5 ± 0.5
352.98 K, 1519.3 kPa | 999.1 ± 0.5
352.98 K, 1623.4 kPa | 999.8 ± 0.5
352.98 K, 1723.3 kPa | 1000.4 ± 0.5
352.98 K, 1821.8 kPa | 1001 ± 0.5
352.98 K, 1928 kPa | 1001.7 ± 0.5
352.98 K, 2027.3 kPa | 1002.3 ± 0.5
352.98 K, 2129.3 kPa | 1002.9 ± 0.5
352.98 K, 2237.1 kPa | 1003.5 ± 0.5
352.98 K, 2331.9 kPa | 1004.2 ± 0.5
352.98 K, 2437.8 kPa | 1004.8 ± 0.5
352.98 K, 2536.4 kPa | 1005.4 ± 0.5
362.91 K, 106.69 kPa | 981.5 ± 0.5
362.91 K, 203.97 kPa | 982.2 ± 0.5
362.91 K, 305.9 kPa | 982.9 ± 0.5
362.91 K, 407.53 kPa | 983.6 ± 0.5
362.91 K, 510.78 kPa | 984.3 ± 0.5
362.91 K, 608.36 kPa | 985 ± 0.5
362.91 K, 708.57 kPa | 985.7 ± 0.5
362.91 K, 811.21 kPa | 986.3 ± 0.5
362.91 K, 912.33 kPa | 987 ± 0.5
362.91 K, 1013.1 kPa | 987.7 ± 0.5
362.91 K, 1114.2 kPa | 988.3 ± 0.5
362.91 K, 1215.1 kPa | 989 ± 0.5
362.91 K, 1318.3 kPa | 989.7 ± 0.5
362.91 K, 1418.7 kPa | 990.3 ± 0.5
362.91 K, 1520.8 kPa | 991 ± 0.5
362.91 K, 1622.2 kPa | 991.7 ± 0.5
362.91 K, 1723.8 kPa | 992.3 ± 0.5
362.91 K, 1825.8 kPa | 993 ± 0.5
362.91 K, 1926.1 kPa | 993.6 ± 0.5
362.91 K, 2030.7 kPa | 994.3 ± 0.5
362.91 K, 2128.7 kPa | 994.9 ± 0.5
362.91 K, 2230.1 kPa | 995.5 ± 0.5
362.91 K, 2332.4 kPa | 996.2 ± 0.5
362.91 K, 2434.6 kPa | 996.8 ± 0.5
362.91 K, 2536.1 kPa | 997.5 ± 0.5

Reference: the NIST ThermoML archive (doi:10.1021/je400055v)
